Assay results taken from patent US8153674B2, “Organic compounds” (Novartis AG, priority 2006, dated 2012).

Columns and labels:
CYP11B1 = biological target: T1, CYP11B1 (Homo sapiens, UniProt P15538); assay: In vitro CYP11B1 inhibition in NCI-H295R cells (steroid release, radioimmunoassay); assay type: cell-based; details: I %: percentage of inhibition; for inhibition at 0.1 µM: NCI-H295R, 100 nM
T1 construct: Thus, the NCI-H295R cells have Cyp11 B1 (steroid 11 p-hydroxylase); host or cells: NCI-H295R
T1 sequence (P15538 25-503): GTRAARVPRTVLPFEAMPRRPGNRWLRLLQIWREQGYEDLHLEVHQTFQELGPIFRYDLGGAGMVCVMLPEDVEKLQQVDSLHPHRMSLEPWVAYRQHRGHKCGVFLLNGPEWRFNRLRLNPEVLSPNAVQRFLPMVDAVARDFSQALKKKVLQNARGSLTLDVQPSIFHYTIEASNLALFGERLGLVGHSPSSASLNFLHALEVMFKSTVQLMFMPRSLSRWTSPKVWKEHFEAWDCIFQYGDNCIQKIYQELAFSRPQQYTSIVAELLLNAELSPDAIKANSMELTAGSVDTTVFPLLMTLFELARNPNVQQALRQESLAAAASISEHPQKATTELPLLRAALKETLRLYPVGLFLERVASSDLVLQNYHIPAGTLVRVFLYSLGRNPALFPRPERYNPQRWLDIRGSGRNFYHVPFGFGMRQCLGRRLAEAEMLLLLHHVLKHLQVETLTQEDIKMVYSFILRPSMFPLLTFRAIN
From the text: The in vitro inhibitory activities for CYP11B1 can be determined by the following assay.
The cell line NCI-H295R was originally isolated from an adrenocortical carcinoma and has been characterized in the literature through the stimulable secretion of steroid hormones and the presence of the enzymes essential for steroidogenesis. Thus, the NCI-H295R cells have Cyp11 B1 (steroid 11 p-hydroxylase). The cells show the physiological property of zonally undifferentiated human foetal adrenocortical cells which, however, have the capacity to produce the steroid hormones which are formed in the three, phenotypically distinguishable zones in the adult adrenal cortex. The NCI-H295R cells (American Type Culture Collection, ATCC, Rockville, Md., USA) are grown in Dulbeoco's Modified Eagle'Ham F-12 Medium (DME/F12), which has been I supplemented with Ulroser SF Serum(Soprachem, Cergy-Saint-Christophe, France), insulin, transferrin, selenite (1-T-S, Becton Dickinson Biosiences, Franklin lakes, NJ, USA) and antibiotics in 75 cm^2 cell culture vessels at 37° C. and in a 95% air-5% carbon dioxide atmosphere. The cells are subsequently transferred for colony formation into a 24-well incubation vessel. They are cultivated there in DME/F12 medium, which is now supplemented with 0.1% bovine serum instead of Ultroser SF for 24 hours. The experiment is initiated by cultivating the cells in DME/F12 medium which is supplemented with 0.1% bovine serum albumin and test compound, in the presence or absence of cell stimulants, for 72 hours. The test substance is added in a concentration range from 0.2 nanomolar to […]. Cell stimulants which can be used are angiotensin 11 ([…] or 100 nanomolar), potassium ions (16 millimolar), forskolin (10 micromolar) or a combination of two stimulants.
The excretion of aldosterone, cortisol, corticosterone and estradiol/estrone into the culture medium can be detected and quantified by commercially available, specific monoclonal antibodies in radioimmunoassays in accordance with the manufacturers instructions.
Inhibition of the release of certain steroids can be used as a measure of the respective enzyme inhibition by the added test compounds. The dose-dependent inhibition of enzymic activity by a compound is calculated by means of an inhibition plot which is characterized by an IC50.
The IC50 values for active test compounds are ascertained by a simple linear regression analysis in order to construct inhibition plots without data weighting. The inhibition plot is calculated by fitting a 4-parameter logistic function to the raw data points using the least squares method. The equation of the 4-parameter logistic function is calculated as follows: Y=(d−a)/((1+(x/c)b))+a I where: a=minimum data level b=gradient I c=ICED, d=maximum data level x=inhibitor concentration.

[1] = biological target: T2, aldosterone synthase (CYP11B2) (Homo sapiens, UniProt P19099); assay: In vitro aldosterone synthase inhibition: cellular aldosterone production in Ang II-stimulated NCI-H295R cells; assay type: cell-based; details: 1 μM Ang II, 24 hr
T2 construct: host or cells: NCI-H295R
T2 sequence (P19099 25-503): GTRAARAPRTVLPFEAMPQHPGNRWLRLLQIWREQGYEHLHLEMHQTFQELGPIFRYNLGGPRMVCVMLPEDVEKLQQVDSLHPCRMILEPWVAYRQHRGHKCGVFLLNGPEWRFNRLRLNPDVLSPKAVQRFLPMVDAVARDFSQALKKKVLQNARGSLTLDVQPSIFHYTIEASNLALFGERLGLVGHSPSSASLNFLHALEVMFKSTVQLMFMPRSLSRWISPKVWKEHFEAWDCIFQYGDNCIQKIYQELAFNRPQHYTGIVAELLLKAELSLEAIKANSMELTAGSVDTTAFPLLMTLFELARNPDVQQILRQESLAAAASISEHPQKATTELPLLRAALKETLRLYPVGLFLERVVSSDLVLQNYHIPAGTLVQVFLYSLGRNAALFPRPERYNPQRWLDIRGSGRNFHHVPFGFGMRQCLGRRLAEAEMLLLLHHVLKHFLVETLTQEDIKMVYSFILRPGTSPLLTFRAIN
From the text: In particular, the aldosterone synthase inhibitory activities in vitro can be determined by the following assay.
Human adrenocortical carcinoma NCI-H295R cell line is obtained from American Type Culture Collection (Manassas, Va.). Insulin/transferrin/selenium (ITS)-A supplement (100×), DMEM/F-12, antibiotic/antimycotic (100×), and fetal calf serum (FCS) are purchased from Gibco (Grand Island, N.Y.). Anti-mouse PVT scintillation proximity assay (SPA) beads and NBS 96-well plates are obtained from Amersham (Piscataway, N.J.) and Corning (Acton, Mass.), respectively. Solid black 96-well flat bottom plates are purchased from Costar (Corning, N.Y.). Aldosterone and angiotensin (Ang II) are purchased from Sigma (St. Louis, Mo.). D-[1,2,6,7-^3H(N)]aldosterone is acquired from PerkinElmer (Boston, Mass.). Nu-serum is a product of BD Biosciences (Franklin Lakes, N.J.).
For in vitro measurement of aldosterone activity, human adrenocortical carcinoma NCI-H295R cells are seeded in NBS 96-well plates at a density of 25,000 cells/well in 100 μl of a growth medium containing DMEM/F12 supplemented with 10% FCS, 2.5% Nu-serum, 1 μg ITS/ml, and 1× antibiotic/antimycotic. The medium is changed after culturing for 3 days at 37° C. under an atmosphere of 5% CO2/95% air. On the following day, cells are rinsed with 100 μl of DMEM/F12 and incubated with 100 μl of treatment medium containing 1 μM Ang II and a compound at different concentrations in quadruplicate wells at 37° C. for 24 hr. At the end of incubation, 50 μl of medium is withdrawn from each well for measurement of aldosterone production by an RIA using mouse anti-aldosterone monoclonal antibodies.
Measurement of aldosterone activity can also be performed using a 96-well plate format. Each test sample is incubated with 0.02 μCi of D-[1,2,6,7-^3H(N)]aldosterone and 0.3 μg of anti-aldosterone antibody in phosphate-buffered saline (PBS) containing 0.1% Triton X-100, 0.1% bovine serum albumin, and 12% glycerol in a total volume of 200 μl at room temperature for 1 hr. Anti-mouse PVT SPA beads (50 μl) are then added to each well and incubated overnight at room temperature prior to counting in a Microbeta plate counter. The amount of aldosterone in each sample is calculated by comparing with a standard curve generated using known quantities of the hormone.

3-(3,3-dimethyl-1-oxo-isochroman-4-yl)-3H-imidazole-4-carbaldehyde oxime (trans) [Entry 5]
CYP11B1 % I (100 nM) (CYP11B1): 97%
IC50 [1]: 47 nM

Cc1noc(-c2cncn2C2c3ccccc3C(=O)OC2(C)C)n1 (racemic) [Entry 4, 3,3-dimethyl-4-[5-(3-methyl-[1,2,4]oxadiazol-5-yl)imidazol-1-yl]-isochroman-1-one]
inhibition at 0.1 µM (CYP11B1): 100%
IC50 [1]: 187 nM

CCCCc1cncn1C1c2ccccc2C(=O)OC1(C)C (racemic) [Entry 6, 4-(5-butyl-imidazol-1-yl)-3,3-dimethyl-isochroman-1-one]
inhibition at 0.1 µM (CYP11B1): 100%
IC50 [1]: 6 nM

CCc1cncn1C1c2ccccc2C(=O)OC12CCOCC2 (racemic) [Entry 10, [4-(5-ethyl-imidazol-1-yl)-isochroman-1-one]-3-spiro(4-tetrahydropyran)]
inhibition at 0.1 µM (CYP11B1): 90%
IC50 [1]: 314 nM

COC(=O)c1cncn1C1c2ccccc2C(=O)N(C)C1(C)C (racemic) [Entry 11, 3-(2,3,3-trimethyl-1-oxo-1,2,3,4-tetrahydro-isoquinolin-4-yl)-3H-imidazole-4-carboxylic acid methyl ester]
inhibition at 0.1 µM (CYP11B1): 95%
IC50 [1]: 73 nM

COC(=O)c1cncn1C1c2ccccc2C(=O)N(C2CC2)C1(C)C (racemic) [Entry 12, 3-(2-cyclopropyl-3,3-dimethyl-1-oxo-1,2,3,4-tetrahydro-isoquinolin-4-yl)-3H-imidazole-4-carboxylic acid methyl ester]
inhibition at 0.1 µM (CYP11B1): 77%
IC50 [1]: 530 nM

COC(=O)c1cncn1C1c2ccccc2C(=O)OC1(C)C (single isomer, unassigned) [Entry 1, 3-(3,3-dimethyl-1-oxo-isochroman-4-yl)-3H-imidazole-4-carboxylic acid methyl ester]
inhibition at 0.1 µM (CYP11B1): 100%
IC50 [1]: 24 nM

CCOC(=O)c1cncn1C1c2ccccc2C(=O)OC1(C)C (single isomer, unassigned) [Entry 2, 3-(3,3-dimethyl-1-oxo-isochroman-4-yl)-3H-imidazole-4-carboxylic acid ethyl ester]
inhibition at 0.1 µM (CYP11B1): 94%
IC50 [1]: 3 nM

CC1(C)OC(=O)c2ccccc2C1n1cncc1C(=O)Oc1ccccc1 (single isomer, unassigned) [Entry 3, 3-(3,3-dimethyl-1-oxo-isochroman-4-yl)-3H-imidazole-4-carboxylic acid phenyl ester]
inhibition at 0.1 µM (CYP11B1): 97%
IC50 [1]: 3 nM

C=Cc1cncn1C1c2ccccc2C(=O)OC1(C)C (single isomer, unassigned) [Entry 7, 4-(5-vinyl-imidazol-1-yl)-3,3-dimethyl-isochroman-1-one]
inhibition at 0.1 µM (CYP11B1): 100%
IC50 [1]: 22 nM

CCOCc1cncn1C1c2ccccc2C(=O)OC1(C)C (single isomer, unassigned) [Entry 8, 4-(5-ethoxymethyl-imidazol-1-yl)-3,3-dimethyl-isochroman-1-one]
inhibition at 0.1 µM (CYP11B1): 100%
IC50 [1]: 17 nM

CCc1cncn1C1c2ccccc2C(=O)OC12CCC2 (single isomer, unassigned) [Entry 9, [4-(5-ethyl-imidazol-1-yl)-isochroman-1-one]-3-spirocyclobutane]
inhibition at 0.1 µM (CYP11B1): 100%
IC50 [1]: 7 nM

CCc1cncn1C1c2ccccc2C(=O)OC12CCC2 (stereo not shown) [Example 1(f), [4-(5-ethyl-imidazol-1-yl)-isochroman-1-one]-3-spirocyclobutane]
melting point: 178 to 179 °C
